Experimental data from US12729377B2, “RNAi agents and compositions for inhibiting expression of angiopoietin-like 3 (ANGPTL3), and methods of use” (Arrowhead Pharmaceuticals, Inc., priority 2017, dated 2026).
In the oligonucleotide strings, read from the 5' end, every base follows the letter of its sugar. An asterisk marks phosphorothioate; unmarked linkages are phosphodiester. Other units and linkages are bracketed, terminal groups are in braces. A string of capitals states the bases alone. {NAG37} = tridentate N-acetyl-galactosamine targeting ligand, structure (NAG37)s; [invAb] = inverted abasic unit; m = 2'-O-methyl; f = 2'-fluoro

Experiments:
ANGPTL3 gene [1] = assay: Example 10: serum triglycerides in mice; assay type: in vivo; settings: 0.5 mg/kg single SC injection day 1, female C57bl/6 mice, n=3, ratio to D5W control
Experimental: To assess the in vivo activity of further ANGPTL3 RNAi agents that are designed to target position 304 on the ANGPTL3 gene, six- to eight-week-old female C57bl/6 mice were used. Pre-dose serum samples were taken at day −1 after a four hour fast. At day 1, each mouse was given a single subcutaneous administration of 200 μl containing 0.5 mg/kg (mpk) of an ANGPTL3 RNAi agent in D5W (dextrose in 5% water), or control (D5W) with no RNAi agent, according to the dosing groups recited in Table 47.
Each of the RNAi agents included a modified sequence and an N-acetyl-galactosamine-containing targeting ligand conjugated to the 5′ terminal end of the sense strand. (See Tables 3, 4, and 5 for modified sequences and targeting ligand structures). As noted above, each of the ANGPTL3 RNAi agents dosed in this study included nucleotide sequences designed to target the ANGPTL3 gene at position 304. The injections were performed between the skin and muscle (i.e. subcutaneous injections) into the loose skin over the neck and shoulder area. Three (3) mice in each group were tested (n=3). Serum was collected on days 8, 15, 22, 29, and for some groups on day 36 (i.e., Groups 1, 2, and 9-13 only). Mice were fasted for four hours prior to each collection. ANGPTL3 protein levels in serum were measured by ELISA assay (R&D Systems), according to the manufacturer's recommendations. Triglycerides, total cholesterol, high-density lipoprotein (HDL), and low-density lipoprotein (LDL) in serum were measured on a Cobas® Integra 400 (Roche Diagnostics), according to the manufacturer's recommendations.
The ANGPTL3 protein levels, triglyceride levels, total cholesterol levels, HDL levels, and LDL levels for each animal were normalized. For normalization, the level of ANGPTL3 protein, triglyceride, HDL, and total cholesterol, respectively, for each animal at a time point, was divided by the pre-treatment level of expression in that animal (in this case at day −1) to determine the ratio of expression “normalized to pre-treatment.” Expression at a specific time point was then normalized to the D5W control group by dividing the “normalized to pre-treatment” ratio for an individual animal by the mean “normalized to pretreatment” ratio of all mice in the D5W control group.

ANGPTL3 gene [2] = assay: Example 14: RNAi agent and statin, serum total cholesterol in LDLR knockout mice; assay type: in vivo, LDLR KO mice
Description: To evaluate the effect of co-administration of RNAi agents and statins in a disease model, LDLR KO mice were commercially obtained (The Jackson Laboratory). For three weeks prior to the onset of the study, forty-one (41) male 7 to 8 week old LDLR KO mice were placed on a high fat (“western”) diet (Teklad Custom Diets TD.88137), and remained on that diet throughout the duration of the study. Pre-dose serum samples were taken on study Day 1 after a four hour fast. The dosing regimen for the study is recited in the following Table 72:
• Mice were treated at 40 mg/kg for the first 11 days, then switched to 20 mg/kg thereafter.
The vehicle used for the oral gavage in the study was a 1:1 mixture of Ora-Plus®: Ora-Sweet® solution, which were acquired commercially. For the preparation of the atorvastatin oral gavage administrations, the respective desired dose of atorvastatin was first dissolved in sterile water (0.3 mL water per 1 mL of desired formulation) and vortexed until smooth, followed by the addition of a mixture of 1:1 Ora-Plus®: Ora-Sweet® solution (0.7 mL vehicle per 1 mL of desired formulation) and vortexed. On day 1 and for each day thereafter an oral gavage dose was administered for each of the Groups except for Group 2. On Day 23, Groups 1, 2, 3, and 4 received a single subcutaneous administration of 2.5 mg/kg dose ([…] solution) of an ANGPTL3 RNAi agent in D5W (dextrose in 5% water), or vehicle control (D5W) with no RNAi agent.
The RNAi agent tested (AD05488) included a modified sequence and an N-acetyl-galactosamine-containing targeting ligand conjugated to the 5′ terminal end of the sense strand. (See Tables 3, 4, and 5 for modified sequences and targeting ligand structures). The injections were performed between the skin and muscle (i.e. subcutaneous injections) into the loose skin over the neck and shoulder area. Serum was collected on days 8, 15, 22 (pre-RNAi agent injection), 29, 36, 43, and 50. LDLR KO mice were fasted for four hours prior to each collection.
ANGPTL3 protein levels in serum were measured by ELISA assay (R&D Systems), according to the manufacturer's recommendations. Among other biomarkers, triglycerides, total cholesterol, and low-density lipoprotein (LDL) in serum were measured on a Cobas® Integra 400 (Roche Diagnostics), according to the manufacturer's recommendations.
The ANGPTL3 protein levels, triglyceride levels, total cholesterol levels, HDL levels, and LDL levels for each animal were normalized. For normalization, respective levels of ANGPTL3 protein, TG, total cholesterol, or LDL for each animal at a time point was divided by the pre-treatment level of expression in that animal (in this case pre-dose levels on Day 1) to determine the ratio of expression “normalized to pre-treatment.” Data from the study set forth in this Example are shown in the following Tables 73-76: […]

## AD05488: RNAi agent duplex: antisense AM07235-AS, sense AM07234-SS (antisense mU*fA*mC*fUmGfAmUfCmAfAmAfUmAfUmGfUmUfGmAfG*mC; sense {NAG37}*[invAb]*mGmCmUmCmAmAmCmAfUfAfUmUmUmGmAmUmCmAmGmUmA*[invAb])
ANGPTL3 gene [1]; Day 8
  Average Triglycerides Normalized to Pre-Treatmen and Control: 0.646
ANGPTL3 gene [1]; Day 15
  Average Triglycerides Normalized to Pre-Treatmen and Control: 0.669
ANGPTL3 gene [1]; Day 22
  Average Triglycerides Normalized to Pre-Treatmen and Control: 0.723
ANGPTL3 gene [1]; Day 29
  Average Triglycerides Normalized to Pre-Treatmen and Control: 0.739
ANGPTL3 gene [1]; Day 36
  Average Triglycerides Normalized to Pre-Treatmen and Control: 0.843
ANGPTL3 gene [2]; Group 2: no gavage, 2.5 mg/kg AD05488 SC on day 23, Day 8 (pre-RNAi agent injection)
  Avg Total Chol normalized to pre-treatment: 0.962
ANGPTL3 gene [2]; Group 2: no gavage, 2.5 mg/kg AD05488 SC on day 23, Day 15 (pre-RNAi agent injection)
  Avg Total Chol normalized to pre-treatment: 1.122
ANGPTL3 gene [2]; Group 2: no gavage, 2.5 mg/kg AD05488 SC on day 23, Day 22 (pre-RNAi agent injection)
  Avg Total Chol normalized to pre-treatment: 1.261
ANGPTL3 gene [2]; Group 2: no gavage, 2.5 mg/kg AD05488 SC on day 23, Day 29
  Avg Total Chol normalized to pre-treatment: 0.645
ANGPTL3 gene [2]; Group 2: no gavage, 2.5 mg/kg AD05488 SC on day 23, Day 36
  Avg Total Chol normalized to pre-treatment: 0.518
ANGPTL3 gene [2]; Group 2: no gavage, 2.5 mg/kg AD05488 SC on day 23, Day 43
  Avg Total Chol normalized to pre-treatment: 0.512
ANGPTL3 gene [2]; Group 2: no gavage, 2.5 mg/kg AD05488 SC on day 23, Day 50
  Avg Total Chol normalized to pre-treatment: 0.515
ANGPTL3 gene [2]; Group 3: 10 mg/kg daily oral gavage atorvastatin, 2.5 mg/kg AD05488 on day 23, Day 8 (pre-RNAi agent injection)
  Avg Total Chol normalized to pre-treatment: 0.763
ANGPTL3 gene [2]; Group 3: 10 mg/kg daily oral gavage atorvastatin, 2.5 mg/kg AD05488 on day 23, Day 15 (pre-RNAi agent injection)
  Avg Total Chol normalized to pre-treatment: 0.620
ANGPTL3 gene [2]; Group 3: 10 mg/kg daily oral gavage atorvastatin, 2.5 mg/kg AD05488 on day 23, Day 22 (pre-RNAi agent injection)
  Avg Total Chol normalized to pre-treatment: 0.758
ANGPTL3 gene [2]; Group 3: 10 mg/kg daily oral gavage atorvastatin, 2.5 mg/kg AD05488 on day 23, Day 29
  Avg Total Chol normalized to pre-treatment: 0.444
ANGPTL3 gene [2]; Group 3: 10 mg/kg daily oral gavage atorvastatin, 2.5 mg/kg AD05488 on day 23, Day 36
  Avg Total Chol normalized to pre-treatment: 0.362
ANGPTL3 gene [2]; Group 3: 10 mg/kg daily oral gavage atorvastatin, 2.5 mg/kg AD05488 on day 23, Day 43
  Avg Total Chol normalized to pre-treatment: 0.331
ANGPTL3 gene [2]; Group 3: 10 mg/kg daily oral gavage atorvastatin, 2.5 mg/kg AD05488 on day 23, Day 50
  Avg Total Chol normalized to pre-treatment: 0.322
ANGPTL3 gene [2]; Group 4: 20 mg/kg* daily oral gavage atorvastatin (40 mg/kg first 11 days), 2.5 mg/kg AD05488 on day 23, Day 8 (pre-RNAi agent injection)
  Avg Total Chol normalized to pre-treatment: 0.682
ANGPTL3 gene [2]; Group 4: 20 mg/kg* daily oral gavage atorvastatin (40 mg/kg first 11 days), 2.5 mg/kg AD05488 on day 23, Day 15 (pre-RNAi agent injection)
  Avg Total Chol normalized to pre-treatment: 0.622
ANGPTL3 gene [2]; Group 4: 20 mg/kg* daily oral gavage atorvastatin (40 mg/kg first 11 days), 2.5 mg/kg AD05488 on day 23, Day 22 (pre-RNAi agent injection)
  Avg Total Chol normalized to pre-treatment: 0.857
ANGPTL3 gene [2]; Group 4: 20 mg/kg* daily oral gavage atorvastatin (40 mg/kg first 11 days), 2.5 mg/kg AD05488 on day 23, Day 29
  Avg Total Chol normalized to pre-treatment: 0.448
ANGPTL3 gene [2]; Group 4: 20 mg/kg* daily oral gavage atorvastatin (40 mg/kg first 11 days), 2.5 mg/kg AD05488 on day 23, Day 36
  Avg Total Chol normalized to pre-treatment: 0.295
ANGPTL3 gene [2]; Group 4: 20 mg/kg* daily oral gavage atorvastatin (40 mg/kg first 11 days), 2.5 mg/kg AD05488 on day 23, Day 43
  Avg Total Chol normalized to pre-treatment: 0.293
ANGPTL3 gene [2]; Group 4: 20 mg/kg* daily oral gavage atorvastatin (40 mg/kg first 11 days), 2.5 mg/kg AD05488 on day 23, Day 50
  Avg Total Chol normalized to pre-treatment: 0.310
ANGPTL3 gene [2]; co-administration of atorvastatin and RNAi agent (Groups 3 and 4), LDLR KO mice on high fat diet
  total reductions in total cholesterol: ~ 70%
